In test [1] the test system is CD8+ T cell line specifically recognizing the N9V/HLA-A*0201 complex. The experiment in a line: Cross-presentation assay: yeast-fed monocyte-derived DCs stimulate IFNγ secretion in co-cultured N9V-specific CD8+ T cells. Type of test: cell-based, human.
Description: An interferon gamma (IFNY) secretion cell capture FACS assay was performed on the T cells to quantify the percentage of cells that had been activated as a result of cross-presentation by the DCs.
The monocytes were aliquoted into vials and cryopreserved in 90% fetal bovine serum (FBS), 10% DMSO. […] Unless otherwise indicated, media components were from Hyclone (Logan, Utah); low endotoxin products were chosen where available. 4-5×10^6 monocytes were cultured per well of a 6-well plate in 2.5 ml C10 medium supplemented with 1000 U/ml each of interleukin-4 and granulocyte-macrophage colony stimulating factor (C10GF; cytokines from R & D Systems, Minneapolis, Minn.). After 2 and 4 days of culture, each well was topped up with 0.5 ml C10GF; after 6 days of culture, floating and loosely adherent monocyte-derived DCs were harvested by gentle resuspension.
Cross-presentation Assay After 6 days of differentiation, monocyte-derived DCs were seeded in 96-well round bottom plates at 1 or 2×10^5 cells in 200 μl C10GF per well. Appropriate numbers of yeast cells (measured by optical density at 600 nm with 10D≈10^7/ml) were rendered non-viable by UV-irradiation (2×1000 J/m^2 in a Stratalinker, Stratagene, La Jolla, Calif.), pelleted by centrifugation and added to the DCs. For inhibition experiments, DCs were pre-incubated with lactacystin (5 μM; Calbiochem, San Diego, Calif.) or chloroquine (25 μM) for one hour before yeast samples were introduced. […] Following 4 h of co-culture, the contents of each well were transferred to tubes for labeling with Miltenyi's IFNY secretion assay kit (Bergisch Gladbach, Germany) according to the recommended protocol. […] The percentage of CD8^+ cells that were IFNY+ was determined by flow cytometry (Coulter Epics XL, Fullerton, Calif. or BD FACSCalibur). The cut-off PE fluorescence was set for each experiment such that about 0.5% of T cells were IFNY+ in a negative control sample (no yeast or peptide).
Surface Display Antigen Dose Normalization In experiments where different linkers were used to surface-display antigen, several cultures of each yeast sample were induced, and cultures with mean antigen levels within 10% of each other were selected to minimize the effect of variable antigen dose on cross-presentation. […] Therefore, each yeast sample was mixed with the appropriate amount of EBY100 yeast to normalize the antigen dose while maintaining the 20:1 ratio of yeast to DCs.
Test [2] concerns the target Cathepsin S (Homo sapiens, UniProt P25774). The experiment in a line: Cleavage of antigen sequences by Cathepsin S. It counts as biochemical. The note with it: cleavage positions MQ|AE and NLVPMVA|TV.

Results on three molecules are retold here after patent US20080171059A1, “METHODS AND COMPOSITIONS FOR INCREASED PRIMING OF T-CELLS THROUGH CROSS-PRESENTATION OF EXOGENOUS ANTIGENS” (priority 2006, published 2008).

Cathepsin S, sequence (P25774 115-331): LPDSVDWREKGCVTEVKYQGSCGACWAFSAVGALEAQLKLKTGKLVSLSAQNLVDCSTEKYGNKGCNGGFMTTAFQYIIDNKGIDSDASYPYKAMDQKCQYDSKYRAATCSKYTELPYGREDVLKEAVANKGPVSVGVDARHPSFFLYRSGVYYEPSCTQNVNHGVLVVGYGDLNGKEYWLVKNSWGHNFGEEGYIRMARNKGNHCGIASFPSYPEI

On to “ARNLVPMVATVQGQN [15-mer extended CMV pp 65 peptide containing N9V, positive control]”, for which the “Percentage of IFNγ+ T cells” value in test [1] (positive control, 1 μM extended peptide) is given as 45-70%.
With “NLVPMVATV [cytomegalovirus epitope, HLA-A*0201-restricted peptide derived from CMV phosphoprotein pp 65]”, the “Cleavage by Cathepsin S” value in test [2] is recorded as “cleaved rapidly”.
`CC(=O)N[C@@H](CSC(=O)[C@]1([C@@H](O)C(C)C)NC(=O)[C@H](C)[C@@H]1O)C(=O)O` [lactacystin]: in test [1] (EBYN9V yeast 20:1, lactacystin 5 μM or chloroquine 25 μM added one hour before yeast), the “Effect of inhibitor on cross-presentation of surface-displayed antigen” value was “strongly inhibited”. In addition, in test [1] (all three integrated strains, lactacystin 5 μM or chloroquine 25 μM), the “Effect of inhibitor on cross-presentation of strains with deleted, C1 and (C1)4 linkers” value is listed as “inhibited”. The “Effect of inhibitor on cross-presentation of intracellular antigen” value in test [1] (yeast expressing Aga2p-N9V intracellularly 20:1, lactacystin 5 μM or chloroquine 25 μM) is “inhibited”.
